Results on one compound are retold here after ChEMBL document CHEMBL1147158, “Novel selective neuropeptide Y2 receptor PEGylated peptide agonists reduce food intake and body weight in mice” (J Med Chem, 2007).

Assay [1] has as its target T1, Neuropeptide Y receptor type 2 (Homo sapiens, UniProt P49146).
T1 sequence (P49146 whole entry): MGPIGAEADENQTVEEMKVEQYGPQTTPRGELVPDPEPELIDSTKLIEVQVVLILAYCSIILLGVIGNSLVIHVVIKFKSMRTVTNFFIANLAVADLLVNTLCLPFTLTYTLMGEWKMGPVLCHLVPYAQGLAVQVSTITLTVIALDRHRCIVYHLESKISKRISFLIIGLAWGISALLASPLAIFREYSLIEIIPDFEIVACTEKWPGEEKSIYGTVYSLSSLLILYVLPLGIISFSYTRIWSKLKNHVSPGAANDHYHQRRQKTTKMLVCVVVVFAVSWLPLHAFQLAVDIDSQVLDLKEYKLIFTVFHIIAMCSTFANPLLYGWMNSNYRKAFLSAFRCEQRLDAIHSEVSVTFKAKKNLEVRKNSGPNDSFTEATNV
Description: Displacement of [125I]PYY from human NPY2.

The target of assay [2] is T1, Neuropeptide Y receptor type 2. Briefly: Agonist activity at human NPY2 by [35S]GTPgammaS […] assay. The class given is functional. On the technique in general: Binding of GTPγS marks nucleotide exchange on a G protein.
Assay [3] addresses T2, Neuropeptide Y receptor type 1 (Homo sapiens, UniProt P25929).
T2 sequence (P25929 whole entry): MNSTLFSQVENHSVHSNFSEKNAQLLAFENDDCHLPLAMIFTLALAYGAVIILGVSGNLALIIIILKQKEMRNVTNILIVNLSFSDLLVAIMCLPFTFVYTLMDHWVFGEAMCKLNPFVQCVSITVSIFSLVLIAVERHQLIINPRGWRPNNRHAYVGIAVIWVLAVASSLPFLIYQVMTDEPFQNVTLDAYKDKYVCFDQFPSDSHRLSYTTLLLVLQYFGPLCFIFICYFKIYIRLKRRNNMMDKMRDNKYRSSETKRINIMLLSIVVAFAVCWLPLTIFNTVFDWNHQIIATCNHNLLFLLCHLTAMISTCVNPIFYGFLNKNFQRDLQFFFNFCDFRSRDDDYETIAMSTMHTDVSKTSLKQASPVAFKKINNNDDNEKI
Description: Displacement of [125I]PYY from human NPY1. For orientation: Displacement assays read how much labelled ligand stays bound in the presence of the test substance.

Assay [4] has as its target T3, Neuropeptide Y receptor type 5 (Homo sapiens, UniProt Q15761).
T3 sequence (Q15761 whole entry): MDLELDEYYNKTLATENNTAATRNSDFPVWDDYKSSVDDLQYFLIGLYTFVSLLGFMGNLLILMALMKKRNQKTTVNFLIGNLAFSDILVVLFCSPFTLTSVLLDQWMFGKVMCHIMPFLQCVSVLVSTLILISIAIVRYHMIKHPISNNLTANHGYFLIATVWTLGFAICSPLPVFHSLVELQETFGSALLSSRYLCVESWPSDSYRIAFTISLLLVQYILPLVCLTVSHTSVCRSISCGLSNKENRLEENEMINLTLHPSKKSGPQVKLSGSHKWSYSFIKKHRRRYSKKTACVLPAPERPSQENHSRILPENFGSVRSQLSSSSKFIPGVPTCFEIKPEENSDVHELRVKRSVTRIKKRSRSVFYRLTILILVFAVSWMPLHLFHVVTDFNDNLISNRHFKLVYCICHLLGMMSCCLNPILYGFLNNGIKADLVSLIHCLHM
Briefly: Displacement of [125I]PYY from human NPY5.

The structures appear in SMILES notation. Residues, ends and D or L forms follow the SMILES beside them. *: point of attachment. X1 = CSc1ncccc1C(=O)*

As usually defined, the Ki is the equilibrium dissociation constant of an inhibitor or competing ligand from its target. For orientation: EC50 means the midpoint of the concentration-response curve. Lower therefore signals higher potency in that assay. `CSc1ncccc1C(=O)N[C@@H](CCCNC(=N)N)C(=O)N[C@@H](Cc1cnc[nH]1)C(=O)N[C@@H](Cc1ccc(O)cc1)C(=O)N[C@@H](CC(C)C)C(=O)N[C@@H](CC(N)=O)C(=O)N[C@@H](CC(C)C)C(=O)N[C@@H](CC(C)C)C(=O)N[C@H](C(=O)N[C@@H](CCCNC(=N)N)C(=O)N[C@@H](CCC(N)=O)C(=O)N[C@@H](CCCNC(=N)N)C(=O)N[C@@H](Cc1ccc(O)cc1)C(N)=O)[C@@H](C)O` (X1-RHYLNLLTRQRY-NH2): the Ki was 11 nM (antagonist) in assay [1], more than 1000 nM in assay [3] and more than 1000 nM in assay [4]. Besides, the EC50 in assay [2] was 4 nM (agonist).
